We go through two compounds from patent US11179326B2, “Short duration depot formulations” (Durect Corporation, priority 2002, dated 2021).

The nature of data set [1]: Saturation concentration in de-ionized water. In kind it is physicochemical. The settings on record: DI water. How it is done: Bupivacaine hydrochloride (Sigma-Aldrich Corporation, St. Louis, MO) was dissolved in de-ionized (DI) water at a concentration of 40 mg/ml (saturation). A calculated amount of sodium hydroxide (1 N solution) was added to the solution and the pH of the final mixtures was adjusted to 10 to precipitate the BP base. The precipitated product was filtered, and further washed with DI water for at least three times. The precipitated product was dried at approximately 40° C. in vacuum for 24 h.

For data set [2] the following is noted: reported value; cited from earlier work.

Where a name gives a salt, the structure may show the parent alone.

Turning to `CCCCN1CCCCC1C(=O)Nc1c(C)cccc1C` (centres unmarked) [Bupivacaine hydrochloride], the “concentration in de-ionized water (saturation)” value in data set [1] was determined as 40000 µg/mL.
For `CC(=O)OCC(COC(C)=O)OC(C)=O` [triacetin], the solubility in water in data set [2] is given as 7.17 grams in 100 ml of water.
